From the NIST ThermoML archive (doi:10.1021/acs.jced.8b00372)
Numbers after ± are expanded uncertainties.

Assay: mn = molality of the nth substance listed, in mol/kg
Details: for electrical conductivity: 100 kPa, Liquid, Frequency=0.002 MHz, Alternating current cell with electrodes; for surface tension liquid-gas: Ring tensiometer

CCCCCCCCCCCCCCCC[n+]1ccn(C)c1.[Cl-] [1-hexadecyl-3-methylimidazolium chloride] + O
Details | electrical conductivity, 303.15 K [S/m] | electrical conductivity, 313.15 K [S/m] | electrical conductivity, 323.15 K [S/m] | surface tension liquid-gas, 313.15 K [mN/m]
m1 = 1.3e-05 | – | – | – | 57.9 ± 2.4
m1 = 4.4e-05 | – | – | – | 56.4 ± 2.4
m1 = 0.00011 | 0.00121 ± 0.00012 | 0.00152 ± 0.00015 | 0.00171 ± 0.00017 | –
m1 = 0.000146 | – | – | – | 53.2 ± 2.2
m1 = 0.00022 | 0.00234 ± 0.00023 | 0.00295 ± 0.0003 | 0.00334 ± 0.00033 | –
m1 = 0.000247 | – | – | – | 50.1 ± 2.1
m1 = 0.00033 | 0.00341 ± 0.00034 | 0.00432 ± 0.00043 | 0.00491 ± 0.00049 | –
m1 = 0.00043 | 0.00444 ± 0.00044 | 0.0056 ± 0.00056 | 0.0064 ± 0.00064 | –
m1 = 0.000435 | – | – | – | 46.4 ± 1.9
m1 = 0.00052 | 0.00541 ± 0.00054 | 0.00686 ± 0.00069 | 0.00791 ± 0.00079 | –
m1 = 0.00062 | 0.00636 ± 0.00064 | 0.00803 ± 0.0008 | 0.00929 ± 0.00093 | –
m1 = 0.00071 | 0.00726 ± 0.00073 | 0.00918 ± 0.00092 | 0.0106 ± 0.0011 | –
m1 = 0.000734 | – | – | – | 39.2 ± 1.6
m1 = 0.00079 | 0.00809 ± 0.00081 | 0.0102 ± 0.001 | 0.0119 ± 0.0012 | –
m1 = 0.00088 | 0.0088 ± 0.00088 | 0.0112 ± 0.0011 | 0.0133 ± 0.0013 | –
m1 = 0.00096 | 0.00933 ± 0.00093 | 0.0119 ± 0.0012 | 0.0143 ± 0.0014 | –
m1 = 0.00104 | 0.00977 ± 0.00098 | 0.0125 ± 0.0013 | 0.0153 ± 0.0015 | –
m1 = 0.00112 | 0.0102 ± 0.001 | 0.0131 ± 0.0013 | 0.0161 ± 0.0016 | –
m1 = 0.00119 | 0.0106 ± 0.0011 | 0.0136 ± 0.0014 | 0.0168 ± 0.0017 | –
m1 = 0.00126 | 0.0109 ± 0.0011 | 0.0141 ± 0.0014 | 0.0175 ± 0.0018 | –
m1 = 0.00127 | – | – | – | 38.8 ± 1.6
m1 = 0.00133 | 0.0112 ± 0.0011 | 0.0145 ± 0.0014 | 0.0181 ± 0.0018 | –
m1 = 0.00139 | 0.0115 ± 0.0011 | 0.0149 ± 0.0015 | 0.0186 ± 0.0019 | –
m1 = 0.00146 | 0.0118 ± 0.0012 | 0.0154 ± 0.0015 | 0.0192 ± 0.0019 | –
m1 = 0.00153 | 0.0121 ± 0.0012 | 0.0157 ± 0.0016 | 0.0197 ± 0.002 | –
m1 = 0.002558 | – | – | – | 38.8 ± 1.6
m1 = 0.00525 | – | – | – | 38.1 ± 1.6

CCCCCCCCCCCC[N+](C)(C)C.[Br-] [dodecyltrimethylammonium bromide] + O
Details | electrical conductivity, 303.15 K [S/m] | electrical conductivity, 313.15 K [S/m] | electrical conductivity, 323.15 K [S/m] | surface tension liquid-gas, 313.15 K [mN/m]
m1 = 6e-06 | – | – | – | 65.2 ± 2.7
m1 = 2.5e-05 | – | – | – | 63.6 ± 2.7
m1 = 5.6e-05 | – | – | – | 62.5 ± 2.6
m1 = 0.000135 | – | – | – | 61.3 ± 2.6
m1 = 0.000263 | – | – | – | 58.3 ± 2.4
m1 = 0.000739 | – | – | – | 54.7 ± 2.3
m1 = 0.001308 | – | – | – | 51.3 ± 2.1
m1 = 0.00178 | 0.0194 ± 0.0019 | 0.0234 ± 0.0023 | 0.0282 ± 0.0028 | –
m1 = 0.00353 | 0.0374 ± 0.0037 | 0.0467 ± 0.0047 | 0.0547 ± 0.0055 | –
m1 = 0.004064 | – | – | – | 46 ± 1.9
m1 = 0.00524 | 0.0553 ± 0.0055 | 0.0668 ± 0.0067 | 0.0802 ± 0.008 | –
m1 = 0.006048 | – | – | – | 43.3 ± 1.8
m1 = 0.00692 | 0.0727 ± 0.0073 | 0.0871 ± 0.0087 | 0.105 ± 0.01 | –
m1 = 0.008433 | – | – | – | 39.5 ± 1.7
m1 = 0.00857 | 0.0893 ± 0.0089 | 0.107 ± 0.011 | 0.128 ± 0.013 | –
m1 = 0.01019 | 0.106 ± 0.011 | 0.126 ± 0.013 | 0.152 ± 0.015 | –
m1 = 0.01178 | 0.121 ± 0.012 | 0.145 ± 0.015 | 0.174 ± 0.017 | –
m1 = 0.01333 | 0.136 ± 0.014 | 0.163 ± 0.016 | 0.196 ± 0.02 | –
m1 = 0.01486 | 0.149 ± 0.015 | 0.18 ± 0.018 | 0.216 ± 0.022 | –
m1 = 0.01636 | 0.157 ± 0.016 | 0.193 ± 0.019 | 0.234 ± 0.023 | –
m1 = 0.01784 | 0.162 ± 0.016 | 0.201 ± 0.02 | – | –
m1 = 0.01789 | – | – | 0.247 ± 0.025 | –
m1 = 0.01929 | 0.166 ± 0.017 | 0.208 ± 0.021 | 0.258 ± 0.026 | –
m1 = 0.01941 | – | – | – | 36.2 ± 1.5
m1 = 0.02071 | 0.17 ± 0.017 | 0.213 ± 0.021 | 0.265 ± 0.027 | –
m1 = 0.02211 | 0.174 ± 0.017 | 0.219 ± 0.022 | 0.272 ± 0.027 | –
m1 = 0.02348 | 0.178 ± 0.018 | 0.224 ± 0.022 | 0.279 ± 0.028 | –
m1 = 0.02483 | 0.181 ± 0.018 | 0.229 ± 0.023 | 0.285 ± 0.029 | –
m1 = 0.02615 | 0.185 ± 0.019 | 0.234 ± 0.023 | 0.292 ± 0.029 | –
m1 = 0.02746 | 0.189 ± 0.019 | 0.238 ± 0.024 | 0.297 ± 0.03 | –
m1 = 0.02874 | 0.192 ± 0.019 | 0.243 ± 0.024 | 0.304 ± 0.03 | –
m1 = 0.03 | 0.195 ± 0.02 | 0.247 ± 0.025 | 0.31 ± 0.031 | –
m1 = 0.0309 | – | – | – | 37.9 ± 1.6
m1 = 0.0456 | – | – | – | 38.3 ± 1.6
m1 = 0.07211 | – | – | – | 38.8 ± 1.6
m1 = 0.1062 | – | – | – | 38.9 ± 1.6
